Results as given in ChEMBL document CHEMBL1201862, “PubChem BioAssay data set” (2004).
Activity calls are given as the source filed them. No stated cut-off is given here; in the data, actives have a measured IC50 and inactives only a lower limit.

Target: Envelope glycoprotein gp160 (Human immunodeficiency virus 1, UniProt Q6QLK5)
Experiment: cell-free HIV fusion peptide-binding blockers – biochemical, uHTS, fluorescence dequenching, […] (AID 1986)

Sequence of Envelope glycoprotein gp160 (Q6QLK5 whole entry, the tested form may be a part): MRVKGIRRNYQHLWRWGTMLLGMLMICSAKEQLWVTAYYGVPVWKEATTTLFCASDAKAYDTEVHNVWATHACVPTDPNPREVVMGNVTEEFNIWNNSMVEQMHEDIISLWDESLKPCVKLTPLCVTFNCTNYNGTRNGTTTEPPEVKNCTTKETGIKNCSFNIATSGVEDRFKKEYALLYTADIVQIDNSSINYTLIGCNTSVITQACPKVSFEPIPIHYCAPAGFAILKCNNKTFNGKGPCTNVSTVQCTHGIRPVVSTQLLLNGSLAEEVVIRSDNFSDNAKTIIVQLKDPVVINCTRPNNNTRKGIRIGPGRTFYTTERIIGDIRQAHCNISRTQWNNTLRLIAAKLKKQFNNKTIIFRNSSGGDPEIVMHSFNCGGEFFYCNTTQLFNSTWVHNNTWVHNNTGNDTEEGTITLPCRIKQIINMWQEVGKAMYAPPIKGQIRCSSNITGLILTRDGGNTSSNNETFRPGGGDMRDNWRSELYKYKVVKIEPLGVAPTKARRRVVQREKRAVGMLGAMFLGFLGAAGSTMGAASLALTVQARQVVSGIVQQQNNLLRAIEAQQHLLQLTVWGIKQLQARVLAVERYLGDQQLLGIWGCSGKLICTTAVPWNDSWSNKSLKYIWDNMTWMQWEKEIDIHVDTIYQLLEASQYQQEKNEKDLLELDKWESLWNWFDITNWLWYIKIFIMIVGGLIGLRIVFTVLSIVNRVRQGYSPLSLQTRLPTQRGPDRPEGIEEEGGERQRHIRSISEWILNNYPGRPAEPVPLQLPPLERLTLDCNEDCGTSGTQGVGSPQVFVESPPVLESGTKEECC

In the case of `COc1ccc(C(=O)/C=C/c2cccc(OCc3ccccc3)c2)cc1CSCC(=O)O`, the IC50 is reported as 29.2 µM (active).
